Where a name gives a salt, the structure may show the parent alone.

Assay in one series: not given
Particulars: carboxylic acids and organic amine compounds used for the ionic liquids; cited from earlier work.
For orientation: pKa means the negative logarithm of the acid dissociation constant. As for `CC(C)CCCCCCCCCCCCCCC(=O)O` [Isostearic acid], the pKa result is “(pKa ≈ 4.9)”. `CCCCCCCCCCCC(=O)O` [Lauric acid]: the pKa entry is on record as “(pKa ≈ 4.9)”.

The series is the same for the next values; noted with them: cited from earlier work.
Turning to `CCCCCCCCCCCCCC(=O)O` [Myristic acid], the pKa entry is “ca.4.9”. As for `CCc1cccc2c3c([nH]c12)C(CC)(CC(=O)O)OCC3` (centres unmarked) [Etodolac, reference compound], the pKa is 4.5. For `CC(=O)CCC(=O)O` [Levulinic acid], the pKa is on record as 4.5. On to `NC1CCCCC1` [Cyclohexylamine], for which the pKa is given as 10.63. With `CCc1ccc(C(=O)C(C)CN2CCCCC2)cc1` (centres unmarked) [Eperisone, reference compound], the pKa is reported as 8.91. For the molecule `CC(C)CCCCCCCCCCCCCCC(=O)O` [Isostearic acid], the pKa result is given as “approximately 4.9”.

`CCCCCCCC/C=C\CCCCCCCC(=O)O` [oleic acid]: the pKa result was “approximately 4.9”.

For the molecule `CC(C(=O)O)c1ccc(-c2ccccc2)c(F)c1` (centres unmarked) [Flurbiprofen, reference compound], the pKa is 3.78. As to `CCCCCCN` [n-Hexylamine], the pKa is recorded as 10.85. For `OCCN1CCCC1` [N-hydroxyethyl-pyrrolidine, N-hydroxyethylpyrrolidine], the pKa is listed as 10.32. As for `CC(C(=O)O)c1ccc(CC2CCCC2=O)cc1` (centres unmarked) [Loxoprofen, reference compound], the pKa is on record as 4.20.

The nature of the next series: pKa of acidic and basic substances present in the compositions. Particulars: assumed to be equal to that of an analogue (footnote *1). The class given is physicochemical.
Regarding `Cc1ccc(C(=O)C(C)CN2CCCCC2)cc1` (centres unmarked) [Tolperisone, reference compound], the pKa was around 8.9. Still for that read-out and setting: as for `CCCCCCCCN` [n-Octylamine], the figure is 10.7.

The nature of a further series: Transdermal absorbability evaluation test using Franz-cells (rat skin permeation). Conditions: indomethacin; cumulative amount permeated 6 hours after start of test; rat skin, Franz-cells.
`COc1ccc2c(c1)c(CC(=O)O)c(C)n2C(=O)c1ccc(Cl)cc1` [Indomethacin, reference compound]: the Transdermal absorbability result is given as “approximately 3 μg/cm^2”.

Still in this series, the particulars now being: tramadol salt liquid preparation free from ionic liquid; percentage of amount added onto the rat skin.
For `CCCCC(CC)C(=O)O.COc1cccc(C2(O)CCCCC2CN(C)C)c1` (centres unmarked) [2-ethylhexanoate, 2-ethylhexanoate of Tramadol], the “Rat skin permeability after 6 hours” value worked out at 12.1%. Same read-out and setting: as for Lactate, the figure is 0.2%; as for Butyrate, 23.8%. On to `COc1cccc(C2(O)CCCCC2CN(C)C)c1` (centres unmarked) [Hydrochloride, tramadol hydrochloride, reference compound], for which the “Rat skin permeability after 6 hours” value stood at 4.5%.

The values above are taken from patent publication US8623387B2, “External preparation composition comprising fatty acid-based ionic liquid as active ingredient” (Medrx Co., Ltd., priority 2007, dated 2014).
